Tests used:
[1] = biological target: T1, human KDR (Homo sapiens, UniProt P35968); assay: Inhibitory activity against KDR phosphorylation by ELISA; format: cell-based; conditions: NIH 3T3 cells transfected with human KDR, VEGF 100 ng/ml
T1 construct: expressed in transfected cells; host or cells: NIH 3T3 cells (Sawano A et al., Cell Growth & Differentiation 7, 213-221 (1996))
Protocol: Measurement of Inhibitory Activity Against KDR Phosphorylation by ELISA
NIH 3T3 cells (Sawano A et al., Cell Growth & Differentation, 7, 213–221 (1996), “Flt-1 but not KDR/Flk-1 tyrosine kinase is a receptor for placenta growth factor, which is related to vascular endothelial growth factor”) prepared by transfection of human KDR were cultured in a DMEM medium containing 10% fetal calf serum (purchased from GIBCO BRL) within a 5% carbon dioxide incubator until 50 to 70% confluent. The harvested cells were inoculated into wells, containing the same medium, in a collagen-type one-coat 96-well flat-bottom plate in an amount of 1.5×10^4 per well, followed by cultivation at 37° C. overnight. The medium was then replaced by a DMEM medium containing 0.1% fetal calf serum. A solution of the test compound in dimethyl sulfoxide was added to each well, and the cultivation was continued at 37° C. for additional one hr. A human recombinant vascular endothelial growth factor (hereinafter abbreviated to “VEGF”) was added to a final concentration of 100 ng/ml, and the stimulation of cells was carried out at 37° C. for 2 min. The medium was removed, the cells were washed with phosphate buffered saline (pH 7.4), and 50 μl of a solubilization buffer (20 mM HEPES (pH 7.4), 150 mM NaCl, 0.2% Triton X-100, 10% glycerol, 5 mM sodium orthovanadylate, 5 mM disodium ethylenediaminetetraacetate, and 2 mM Na4P2O7) was then added thereto. The mixture was shaken at 4° C. for 2 hr to prepare a cell extract.
Separately, phosphate buffered saline (50 μl, pH 7.4) containing […] of anti-phospho-tyrosine antibody (PY20; purchased from Transduction Laboratories) was added to a microplate for ELISA (Maxisorp; purchased from NUNC), followed by standing at 4° C. overnight to form a solid phase on the wells. After washing of the plate, 300 μl of a blocking solution was added, followed by standing at room temperature for 2 hr to perform blocking. After washing, the whole quantity of the cell extract was transferred to the wells, and the plate was then allowed to stand at 4° C. overnight. After washing, an anti-KDR antibody (purchased from Santa Cruz) was allowed to react at room temperature for one hr, and, after washing, a peroxidase-labeled anti-rabbit Ig antibody (purchased from Amersham) was allowed to react at room temperature for one hr. After washing, a chromophoric substrate for peroxidase (purchased from Sumitomo Bakelite Co., Ltd.) was added thereto to initiate a reaction. After a suitable level of color development, a reaction termination solution was added to stop the reaction, and the absorbance at 450 nm was measured with a microplate reader. The KDR phosphorylation activity for each well was determined by presuming the absorbance with the addition of VEGF and without the addition of the medicament to be 100% KDR phosphorylation activity and the absorbance without the medicament and VEGF to be 0% KDR phosphorylation activity. The concentration of the test compound was varied on several levels, the inhibition (%) of KDR phosphorylation was determined for each case, and the concentration of the test compound necessary for inhibiting 50% of KDR phosphorylation (IC50) was calculated.

[2] = tested on: Human glioma cells GL07; assay: Antitumor effect on human glioma cells (GL07) transplanted into nude mice; format: in vivo; conditions: GL07, oral, 20 mg/kg once a day for 9 days; for inhibition in vivo at 20 mg/kg: Mus musculus, Glioma cell, 216 h, read-out: TGIR, % (tumor growth inhibition rate)
Protocol: Antitumor Effect on Human Glioma Cells (GL07)
Human glioma cells GL07 (obtained from Central Laboratories for Experimental Animals) were transplanted into nude mice. When the tumor volume became about 100 mm^3, the mice were grouped. In this case, grouping was carried out so that each group consisted of four mice and the average tumor volume was even among the groups. The test compound was orally or intraperitoneally administered at a dose of 20 mg/kg to the test groups every day once a day for 9 days, while the medium was administered to the control group in the manner as in the test groups. The tumor growth inhibition rate (TGIR) was calculated as follows: The tumor growth inhibition rate (TGIR)=(1−Tx/Cx)×100 wherein Cx represents the volume of tumor at day x for the control group when the tumor volume at the day of the start of the administration was presumed to be 1; and Tx represents the volume of tumor for test compound administration groups.

T1 sequence (P35968 20-1356): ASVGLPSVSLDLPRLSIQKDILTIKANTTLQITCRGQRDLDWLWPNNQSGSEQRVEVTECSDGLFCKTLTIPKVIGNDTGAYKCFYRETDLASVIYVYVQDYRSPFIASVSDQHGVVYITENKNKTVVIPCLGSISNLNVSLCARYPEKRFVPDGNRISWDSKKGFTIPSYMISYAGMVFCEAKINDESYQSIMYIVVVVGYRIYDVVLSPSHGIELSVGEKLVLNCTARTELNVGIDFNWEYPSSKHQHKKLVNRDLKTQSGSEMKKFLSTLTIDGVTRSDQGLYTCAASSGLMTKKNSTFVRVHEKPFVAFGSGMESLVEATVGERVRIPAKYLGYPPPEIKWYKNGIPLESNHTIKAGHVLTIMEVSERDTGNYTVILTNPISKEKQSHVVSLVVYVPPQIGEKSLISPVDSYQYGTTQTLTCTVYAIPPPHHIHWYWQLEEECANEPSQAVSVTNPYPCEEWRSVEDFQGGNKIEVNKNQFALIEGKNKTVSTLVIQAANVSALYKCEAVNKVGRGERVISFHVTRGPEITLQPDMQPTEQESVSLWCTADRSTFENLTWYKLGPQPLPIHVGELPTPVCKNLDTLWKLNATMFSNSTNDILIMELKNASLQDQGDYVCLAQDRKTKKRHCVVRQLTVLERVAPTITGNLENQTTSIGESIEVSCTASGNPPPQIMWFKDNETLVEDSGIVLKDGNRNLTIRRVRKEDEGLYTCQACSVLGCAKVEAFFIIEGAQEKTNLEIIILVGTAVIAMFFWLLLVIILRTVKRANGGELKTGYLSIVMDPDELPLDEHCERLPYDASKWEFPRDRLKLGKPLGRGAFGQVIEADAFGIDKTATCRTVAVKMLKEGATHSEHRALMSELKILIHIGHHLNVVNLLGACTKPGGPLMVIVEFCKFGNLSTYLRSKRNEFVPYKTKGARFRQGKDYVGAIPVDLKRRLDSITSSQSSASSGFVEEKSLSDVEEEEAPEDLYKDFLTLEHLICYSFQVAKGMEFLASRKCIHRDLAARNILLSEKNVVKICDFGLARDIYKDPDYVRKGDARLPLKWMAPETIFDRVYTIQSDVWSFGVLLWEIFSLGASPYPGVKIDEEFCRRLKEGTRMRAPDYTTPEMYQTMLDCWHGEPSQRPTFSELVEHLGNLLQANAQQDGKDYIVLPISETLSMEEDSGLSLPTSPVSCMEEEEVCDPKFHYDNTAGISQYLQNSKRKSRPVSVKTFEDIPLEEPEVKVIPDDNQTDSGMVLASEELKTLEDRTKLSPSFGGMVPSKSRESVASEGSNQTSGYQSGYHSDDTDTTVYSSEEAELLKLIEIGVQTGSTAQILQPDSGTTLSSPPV

Row | Structure (SMILES) | IC50 [1] [nM] | inhibition in vivo at 20 mg/kg [2] [%] | TGIR, % (tumor growth inhibition rate) [2] [%]
1 | CCCNC(=O)Nc1ccc(Oc2ncnc3cc(OCCCSc4ccncc4)c(OC)cc23)cc1Cl [Example 133, N-[2-Chloro-4-({6-methoxy-7-[3-(4-pyridylthio)propoxy]-4-quinazolinyl}oxy)phenyl]-N′-propylurea] | 8.3 | 20 | 
2 | C#CCNC(=O)Nc1ccc(Oc2ncnc3cc(OC)c(OC)cc23)cc1Cl [Example 81, N-{2-Chloro-4-[(6,7-dimethoxy-4-quinazolinyl)oxy]phenyl}-N′-(2-propynyl)urea] | 4.1 |  | 
3 | COc1cc2c(Oc3ccc(NC(=O)N(C)C)c(Cl)c3)ncnc2cc1OCCCCN1CCOCC1 [Example 179, N′-(2-Chloro-4-{[6-methoxy-7-(4-morpholinobutoxy)-4-quinazolinyl]oxy}phenyl)-N,N-dimethylurea] | > 1000 | 33 | 
4 | CCCNC(=O)Nc1ccc(Oc2ncnc3cc(OCCN(C)CCO)c(OC)cc23)cc1Cl [Example 129, N-{2-Chloro-4-[(7-{2-[(2-hydroxyethyl)-(methyl)amino]ethoxy}-6-methoxy-4-quinazolinyl)oxy]-phenyl}-N′-propylurea] |  | 25 | 
5 | CCCNC(=O)Nc1ccc(Oc2ncnc3cc(OCCCN4CCOCC4)c(OC)cc23)cc1OC [Example 171, N-(2-Methoxy-4-{[6-methoxy-7-(3-morpholinopropoxy)-4-quinazolinyl]oxy}phenyl)-N′-propylurea] |  | 13 | 
6 | COc1cc2c(Oc3ccc(NC(=O)Nc4ccc(F)cc4F)c(Cl)c3)ccnc2cc1OCCN1CCOCC1 [Example 51, N-(2-chloro-4-{[6-methoxy-7-(2-morpholinoethoxy)-4-quinolyl]oxy}phenyl)-N′-(2,4-difluorophenyl)urea] |  | 65 | 
7 | CCCNC(=O)Nc1ccc(Oc2ccnc3cc(OCc4ccncc4)c(OC)cc23)cc1OC [Example 174, N-(2-Methoxy-4-{[6-methoxy-7-(4-pyridylmethoxy)-4-guinolyl]oxy}phenyl)-N′-propylurea] |  |  | 19
8 | COc1cc(Oc2ncnc3cc(OCCCN4CCOCC4)c(OC)cc23)ccc1NC(=O)Nc1ccc(F)cc1F [Example 172, N-(2,4-Difluorophenyl)-N′-(2-methoxy-4-{[6-methoxy-7-(3-morpholinopropoxy)-4-quinazolinyl]oxy}-phenyl)urea] |  | 42 | 
9 | CCCNC(=O)Nc1ccc(Oc2ncnc3cc(OCCN4CCN(C)CC4)c(OC)cc23)cc1Cl [Example 128, N-[2-Chloro-4-({6-methoxy-7-[2-(4-methylpiperazino)ethoxy]-4-quinazolinyl}oxy)phenyl]-N′-propylurea] |  | 21 | 
10 | CCCNC(=O)Nc1ccc(Oc2ccnc3cc(OCCCN4CCOCC4)c(OC)cc23)cc1OC [Example 173, N-(2-Methoxy-4-{[6-methoxy-7-(3-morpholinopropoxy)-4-quinolyl]oxy}phenyl)-N′-propylurea] |  | 21 | 
11 | CCCNC(=O)Nc1ccc(Oc2ncnc3cc(OC)c(OC)cc23)cc1F [Example 88, N-{4-[(6,7-Dimethoxy-4-quinazolinyl)oxy]-2-fluorophenyl}-N′-propylurea] | 61 |  | 
12 | CCCNC(=O)Nc1ccc(Oc2ncnc3cc(OCCCN4CCN(C)CC4)c(OC)cc23)cc1Cl [Example 130, N-[2-Chloro-4-({6-methoxy-7-[3-(4-methylpiperazino)propoxy]-4-quinazolinyl}oxy)phenyl]-N′-propylurea] |  | 32 | 
13 | CCCNC(=O)N(COC)c1ccc(Oc2ncnc3cc(OC)c(OC)cc23)cc1Cl [Example 109, N-{2-Chloro-4-[(6,7-dimethoxy-4-quinazolinyl)oxy]phenyl}-N-methoxymethyl-N′-propylurea] |  | 71 | 

Further lines, with some results ahead:

Row | IC50 [1] [nM] | Structure (SMILES) | inhibition in vivo at 20 mg/kg [2] [%] | TGIR, % (tumor growth inhibition rate) [2] [%]
14 | 5 | CCCCNC(=O)Nc1ccc(Oc2ncnc3cc(OC)c(OC)cc23)cc1[N+](=O)[O-] [Example 108, N-Butyl-N′-{4-[(6,7-dimethoxy-4-quinazolinyl)oxy]-2-nitrophenyl}urea] |  | 
15 | 1.9 | CCCNC(=O)Nc1ccc(Oc2ccnc3cc(OCCCCCn4ccnn4)c(OC)cc23)cc1Cl [Example 159, N-{2-chloro-4-[(6-methoxy-7-{[5-(1H-1,2,3-triazol-1-yl)pentyl]oxy}-4-quinolyl)oxy]phenyl}-N′-propylurea] | 40 | 
16 | 160 | CCCNC(=O)Nc1ccc(Oc2ncnc3cc(OC)c(OCCN4CCN(C)CC4)cc23)cc1Cl [Example 136, N-[2-Chloro-4-({7-methoxy-6-[2-(4-methylpiperazino)ethoxy]-4-quinazolinyl}oxy)phenyl]-N′-propylurea] | 23 | 
17 | > 1000 | COc1cc2ncnc(Oc3ccc(NC(=O)N(C)c4ccc(Cl)cc4)c(Cl)c3)c2cc1OC [Example 115, N′-{2-Chloro-4-[(6,7-dimethoxy-4-quinazolinyl)oxy]phenyl}-N-(4-chlorophenyl)-N-methylurea] | 74 | 
18 | 1 | COc1cc2c(Oc3ccc(NC(=O)Nc4ccc(F)cc4F)c(Cl)c3)ncnc2cc1OCCN1CCOCC1 [Example 162, N-(2-chloro-4-{[6-methoxy-7-(2-morpholinoethoxy)-4-quinazolinyl]oxy}phenyl)-N′-(2,4-difluorophenyl)urea] | 40 | 
19 | 1.1 | COc1cc2c(Oc3ccc(NC(=O)Nc4ccc(F)cc4F)c(Cl)c3)ccnc2cc1OCCn1ccnn1 [Example 170, N-[2-chloro-4-(6-methoxy-7-{[2-(1H-1,2,3-triazol-1-yl)ethoxy]-4-quinolyl}oxy)phenyl]-N′-(2,4-difluorophenyl)urea] |  | 64
20 | 5.8 | CCCNC(=O)Nc1ccc(Oc2ncnc3cc(OCCO)c(OC)cc23)cc1Cl [Example 122, N-(2-Chloro-4-{[7-(2-hydroxyethoxy)-6-methoxy-4-quinazolinyl]oxy}phenyl)-N′-propylurea] | 21 | 
21 | 0.8 | CCCNC(=O)Nc1ccc(Oc2ccnc3cc(OCCCN(CCO)CCO)c(OC)cc23)cc1Cl [Example 156, N-{2-Chloro-4-[(7-{3-[di(2-hydroxyethyl)-amino]propoxy}-6-methoxy-4-guinolyl)oxy]phenyl}-N′-propylurea] | 24 | 
22 | 1.6 | CCCNC(=O)Nc1ccc(Oc2ccnc3cc(OCCO)c(OC)cc23)cc1Cl [Example 149, N-(2-chloro-4-{[7-(2-hydroxyethoxy)-6-methoxy-4-quinolyl]oxy}phenyl)-N′-propylurea] | 47 | 
23 | 5 | CCCNC(=O)Nc1ccc(Oc2ncnc3cc(OCCCSc4nnnn4C)c(OC)cc23)cc1Cl [Example 134, N-{2-Chloro-4-[(6-methoxy-7-{3-[(1-methyl-1H-1,2,3,4-tetrazol-5-yl)thio]propoxy}-4-quinazolinyl)-oxy]phenyl}-N′-propylurea] | 29 | 
24 | > 1000 | COc1cc2ncnc(Oc3ccc(NC(=O)N(C)C)c(Cl)c3)c2cc1OC [Example 118, N′-{2-Chloro-4-[(6,7-dimethoxy-4-quinazolinyl)oxy]phenyl}-N,N-dimethylurea] |  | 
25 | 24 | CNC(=O)Nc1ccc(Oc2ncnc3cc(OC)c(OC)cc23)cc1Cl [Example 117, N-{2-chloro-4-[(6,7-dimethoxy-4-quinazolinyl)oxy]phenyl}-N′-methylurea] |  | 

Source: patent publication US7169789B2 (Kirin Beer Kabushiki Kaisha, priority 1999, dated 2007)
